Source: the supplement of paper PMC10307832

Key:
Test in all cases: relative viability (nuclei count vs DMSO), 5 days (fraction); higher = more cells survive
BX 795 + Crizotinib = compound: O=C(NCCCNc1nc(Nc2cccc(NC(=O)N3CCCC3)c2)ncc1I)c1cccs1 [BX 795] + C[C@@H](Oc1cc(-c2cnn(C3CCNCC3)c2)cnc1N)c1c(Cl)ccc(F)c1Cl [Crizotinib] (partner 1 µM)
Outline: (§1)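 Values are medians from duplicate plates. Each reflects relative viability, defined as the nuclei count of treated wells over that of vehicle wells. Lung cancer cell lines in 1536-well plates were pin-tool dosed one day after seeding with one drug alone or with a fixed anchor-drug dose plus five library-drug doses (not always all listed) in √10 steps, then fixed, stained and imaged at 4× after 5 days.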

BX 795 + Dasatinib = compound: O=C(NCCCNc1nc(Nc2cccc(NC(=O)N3CCCC3)c2)ncc1I)c1cccs1 [BX 795] + Cc1nc(Nc2ncc(C(=O)Nc3c(C)cccc3Cl)s2)cc(N2CCN(CCO)CC2)n1 [Dasatinib] (partner 0.075 µM)
Outline: as §1

BX 795 + Alpelisib = compound: O=C(NCCCNc1nc(Nc2cccc(NC(=O)N3CCCC3)c2)ncc1I)c1cccs1 [BX 795] + Cc1nc(NC(=O)N2CCC[C@H]2C(N)=O)sc1-c1ccnc(C(C)(C)C(F)(F)F)c1 [Alpelisib] (partner 2 µM)
Outline: as §1

BX 795 + AZD7762 = compound: O=C(NCCCNc1nc(Nc2cccc(NC(=O)N3CCCC3)c2)ncc1I)c1cccs1 [BX 795] + NC(=O)Nc1cc(-c2cccc(F)c2)sc1C(=O)N[C@H]1CCCNC1 [AZD7762] (partner 0.2 µM)
Outline: as §1

BX 795 + Olaparib = compound: O=C(NCCCNc1nc(Nc2cccc(NC(=O)N3CCCC3)c2)ncc1I)c1cccs1 [BX 795] + O=C(c1cc(Cc2n[nH]c(=O)c3ccccc23)ccc1F)N1CCN(C(=O)C2CC2)CC1 [Olaparib] (partner 8 µM)
Outline: as §1

| Cell Line | relative viability (BX 795 + Crizotinib; first compound 0.04 µM) | relative viability (BX 795 + Crizotinib; first compound 0.1265 µM) | relative viability (BX 795 + Crizotinib; first compound 0.4 µM) | relative viability (BX 795 + Crizotinib; first compound 1.265 µM) | relative viability (BX 795 + Dasatinib; first compound 0.04 µM) | relative viability (BX 795 + Dasatinib; first compound 0.1265 µM) | relative viability (BX 795 + Dasatinib; first compound 0.4 µM) | relative viability (BX 795 + Dasatinib; first compound 1.265 µM) | relative viability (BX 795 + Alpelisib; first compound 0.04 µM) | relative viability (BX 795 + Alpelisib; first compound 0.1265 µM) | relative viability (BX 795 + Alpelisib; first compound 0.4 µM) | relative viability (BX 795 + Alpelisib; first compound 1.265 µM) | relative viability (BX 795 + AZD7762; first compound 0.04 µM) | relative viability (BX 795 + AZD7762; first compound 0.1265 µM) | relative viability (BX 795 + AZD7762; first compound 0.4 µM) | relative viability (BX 795 + AZD7762; first compound 1.265 µM) | relative viability (BX 795 + Olaparib; first compound 0.04 µM) | relative viability (BX 795 + Olaparib; first compound 0.1265 µM) | relative viability (BX 795 + Olaparib; first compound 0.4 µM) | relative viability (BX 795 + Olaparib; first compound 1.265 µM) |
| --- | --- | --- | --- | --- | --- | --- | --- | --- | --- | --- | --- | --- | --- | --- | --- | --- | --- | --- | --- | --- |
| NCI-H358 | 0.652 | 0.38 | 0.367 | 0.17 | 0.155 | 0.165 | 0.154 | 0.154 | 0.95 | 0.642 | 0.822 | 0.281 | 0.518 | 0.556 | 0.372 | 0.433 | 0.724 | 0.709 | 0.486 | 0.368 |
| NCI-H2126 | 1.04 | 0.984 | 1.09 | 0.945 | 0.649 | 0.658 | 0.507 | 0.599 | 0.768 | 0.763 | 0.876 | 0.728 | 1.02 | 1.01 | 1.01 | 0.983 | 0.982 | 0.909 | 1 | 0.893 |
| A-427 | 0.906 | 0.924 | 0.771 | 0.446 | 0.796 | 0.611 | 0.709 | 0.545 | 1.1 | 1.1 | 1.1 | 1.03 | 0.774 | 0.843 | 0.694 | 0.647 | 0.826 | 0.68 | 0.672 | 0.641 |
| NCI-H650 | 0.712 | 0.771 | 0.421 | 0.619 | 0.463 | 0.41 | 0.42 | 0.337 | 1.09 | 1.07 | 1.02 | 0.7 | 0.843 | 0.908 | 0.701 | 1.05 | 0.451 | 0.367 | 0.412 | 0.259 |
| NCI-H2170 | 1.17 | 1.27 | 1.07 | 1.13 | 0.594 | 0.517 | 0.476 | 0.64 | 0.859 | 0.92 | 0.864 | 0.751 | 0.874 | 1.09 | 0.812 | 0.791 | 0.597 | 0.681 | 0.538 | 0.487 |
| LXF-289 | 0.86 | 0.82 | 0.778 | 0.47 | 0.209 | 0.28 | 0.185 | 0.15 | 1.06 | 1.04 | 1.11 | 0.693 | 1.07 | 1.14 | 0.995 | 1.06 | 1.06 | 1.04 | 1.2 | 0.81 |
| EMC-BAC-2 | 0.724 | 0.733 | 0.631 | 0.525 | 0.296 | 0.371 | 0.287 | 0.265 | 0.766 | 0.795 | 0.715 | 0.464 | 1.06 | 1.09 | 0.945 | 0.727 | 0.563 | 0.369 | 0.494 | 0.323 |
| NCI-H1755 | 0.935 | 0.908 | 0.767 | 0.516 | 0.432 | 0.468 | 0.465 | 0.353 | 0.929 | 0.9 | 0.93 | 0.63 | 0.465 | 0.467 | 0.374 | 0.386 | 0.961 | 0.858 | 0.956 | 0.725 |
| LK-2 | 0.238 | 0.171 | 0.21 | 0.193 | 0.35 | 0.201 | 0.291 | 0.304 | 1.1 | 1.07 | 0.952 | 1.03 | 0.367 | 0.33 | 0.445 | 0.3 | 0.769 | 0.883 | 0.739 | 0.641 |
| NCI-H2085 | 0.911 | 0.841 | 0.843 | 0.732 | 0.25 | 0.214 | 0.221 | 0.249 | 1.09 | 0.98 | 1.14 | 0.863 | 0.895 | 0.932 | 0.947 | 0.957 | 0.827 | 0.833 | 0.914 | 0.72 |
| NCI-H838 | 0.781 | 0.689 | 0.628 | 0.356 | 0.29 | 0.367 | 0.261 | 0.231 | 0.944 | 1.03 | 0.995 | 0.412 | 0.94 | 0.981 | 0.786 | 0.824 | 0.853 | 0.757 | 0.643 | 0.248 |
| LU99A | 0.646 | 0.593 | 0.455 | 0.361 | 0.78 | 0.571 | 0.472 | 0.364 | 0.541 | 0.445 | 0.482 | 0.222 | 0.344 | 0.355 | 0.347 | 0.24 | 0.211 | 0.264 | 0.17 | 0.222 |
| NCI-H3122 | 0.293 | 0.266 | 0.282 | 0.296 | 0.791 | 1 | 0.8 | 0.852 | 0.989 | 0.832 | 0.78 | 0.866 | 1.06 | 1.07 | 0.937 | 1.03 | 0.573 | 0.609 | 0.539 | 0.669 |
| NCI-H1734 | 0.765 | 0.727 | 0.64 | 0.432 | 0.446 | 0.465 | 0.474 | 0.398 | 0.699 | 0.658 | 0.708 | 0.424 | 0.54 | 0.562 | 0.51 | 0.444 | 0.612 | 0.662 | 0.501 | 0.514 |
| LC-2-ad | 0.558 | 0.316 | 0.325 | 0.402 | 0.416 | 0.497 | 0.391 | 0.285 | 0.959 | 0.89 | 0.654 | 0.268 | 0.806 | 0.808 | 0.795 | 0.858 | 0.756 | 0.456 | 0.685 | 0.608 |
